Source: patent US6355799B1, “Substituted benzene compounds, process for their preparation, and herbicidal and defoliant compositions containing them” (ISK Americas Incorporated, priority 1997, dated 2002)

Assays:
Assay type in all cases: in vivo
[1] = test system: upland rice (Oryza sp., var. Tebonnet, RICE); test: Pre-emerge test, crop safety; conditions: rated 14 days after application, 0 = no damage, 100 = complete death
Summary of the method: (§1)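 Compounds in acetone were track-sprayed at 15-1000 g ai/ha (187 l/ha) on sandy loam pots: pre-emerge one day after seeding, post-emerge at 2-3 leaf stage with 0.25% v/v non-ionic surfactant. Phytotoxicity was rated 14 days later on a 0 (no damage) to 100 (complete death) scale.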

[2] = test system: field corn (Zea mays L., var. Dekalb 535, CORN); test: Pre-emerge test, crop safety; conditions: rated 14 days after application, 0 = no damage, 100 = complete death
Summary of the method: as §1

[3] = test system: common ragweed (Ambrosia artemisizfolia L., AMBEL); test: Pre-emerge test, greenhouse herbicide activity screening; conditions: rated 14 days after application, 0 = no damage, 100 = complete death
Summary of the method: (§2)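 Fourteen days after spraying, crop and weed injury was graded visually from 0, no effect, to 100, every plant dead. Test substances were dissolved in acetone and applied at 15–1000 g ai/ha with a flat-fan nozzle. Application was either pre-emergence, one day after sowing, or post-emergence at the 2–3 leaf stage.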

[4] = test system: green foxtail (Setaria viridis, SETVI); test: as above; conditions: rated 14 days after application, 0 = no damage, 100 = complete death
Summary of the method: as §2

[5] = test system: ivyleaf morningglory (Ipomoea hederacea, IPOHE); test: as above; conditions: rated 14 days after application, 0 = no damage, 100 = complete death
Summary of the method: as §2

[6] = test system: lambsquarters (Chenopodium album, CHEAL); test: as above; conditions: rated 14 days after application, 0 = no damage, 100 = complete death
Summary of the method: as §2

[7] = test system: velvetleaf (Abutilon theophrasti, ABUTH); test: as above; conditions: rated 14 days after application, 0 = no damage, 100 = complete death
Summary of the method: as §2

[8] = test system: sicklepod (Cassia obtusifolia, CASOB); test: as above; conditions: rated 14 days after application, 0 = no damage, 100 = complete death
Summary of the method: as §2

[9] = test system: large crabgrass (Digitaria sanguinalis, DIGSA); test: as above; conditions: rated 14 days after application, 0 = no damage, 100 = complete death
Summary of the method: as §2

[10] = test system: johnsongrass (Sorghum halepense, SORHA); test: as above; conditions: rated 14 days after application, 0 = no damage, 100 = complete death
Summary of the method: as §2

[11] = test system: barnyardgrass (Echinochloa crus-galli, ECHCG); test: as above; conditions: rated 14 days after application, 0 = no damage, 100 = complete death
Summary of the method: as §2

[12] = test system: upland rice (Oryza sp., var. Tebonnet, RICE); test: Post-emerge test, crop safety; conditions: post-emerge, 14 days after application, rating scale 0-100
Summary of the method: as §2

[13] = test system: field corn (Zea mays L., var. Dekalb 535, CORN); test: Post-emerge test, crop safety; conditions: post-emerge, 14 days after application, rating scale 0-100
Summary of the method: as §2

[14] = test system: redroot pigweed (Amaranthus retroflexus, AMARE); test: Pre-emerge test, greenhouse herbicide activity screening; conditions: rated 14 days after application, 0 = no damage, 100 = complete death
Summary of the method: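 Plants grown in 10 cm pots of sandy loam mix received acetone-dissolved compounds through a moving flat-fan nozzle. Doses ranged from 15 to 1000 g ai/ha. Pre-emerge pots were seeded one day earlier, post-emerge pots 8–21 days earlier. Fourteen days on, each pot was graded 0–100 for damage.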

[15] = test system: common ragweed (Ambrosia artemisizfolia L., AMBEL); test: Post-emerge test, greenhouse herbicide activity screening; conditions: post-emerge, 14 days after application, rating scale 0-100
Summary of the method: (§3)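 Each test used a mechanized track sprayer delivering 187 l/ha of acetone solution at 15–1000 g ai/ha. Post-emerge foliage at 2–3 leaves was treated with added 0.25% v/v non-ionic surfactant and bottom-watered only. Injury was assessed on day 14, where 100 means total kill.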

[16] = test system: green foxtail (Setaria viridis, SETVI); test: as above; conditions: post-emerge, 14 days after application, rating scale 0-100
Summary of the method: as §3

[17] = test system: ivyleaf morningglory (Ipomoea hederacea, IPOHE); test: as above; conditions: post-emerge, 14 days after application, rating scale 0-100
Summary of the method: as §3

[18] = test system: lambsquarters (Chenopodium album, CHEAL); test: as above; conditions: post-emerge, 14 days after application, rating scale 0-100
Summary of the method: as §3

[19] = test system: velvetleaf (Abutilon theophrasti, ABUTH); test: as above; conditions: post-emerge, 14 days after application, rating scale 0-100
Summary of the method: as §3

[20] = test system: sicklepod (Cassia obtusifolia, CASOB); test: as above; conditions: post-emerge, 14 days after application, rating scale 0-100
Summary of the method: as §3

[21] = test system: redroot pigweed (Amaranthus retroflexus, AMARE); test: as above; conditions: post-emerge, 14 days after application, rating scale 0-100
Summary of the method: as §3

[22] = test system: large crabgrass (Digitaria sanguinalis, DIGSA); test: as above; conditions: post-emerge, 14 days after application, rating scale 0-100
Summary of the method: as §3

[23] = test system: johnsongrass (Sorghum halepense, SORHA); test: as above; conditions: post-emerge, 14 days after application, rating scale 0-100
Summary of the method: as §3

[24] = test system: barnyardgrass (Echinochloa crus-galli, ECHCG); test: as above; conditions: post-emerge, 14 days after application, rating scale 0-100
Summary of the method: as §3

COc1c(Cl)cc(F)c(-n2c(=O)cc(C(F)(F)F)n(C)c2=O)c1NC(=O)c1ccc(F)cc1F [Compound 2-42, 3-[4-chloro-2-(2,4difluorobenzoyl)amino-6-fluoro-3-methoxyphenyl]-1-methyl-6-trifluoromethyl-2,4(1H 3H)-pyrimidinedione]
Pre-emerge phytotoxicity rating (0-100), crop damage, RICE ([1]; 63 g ai/ha): 90
Pre-emerge phytotoxicity rating (0-100), crop damage, RICE ([1]; 250 g ai/ha): 99
Pre-emerge phytotoxicity rating (0-100), crop damage, CORN ([2]; 63 g ai/ha): 85
Pre-emerge phytotoxicity rating (0-100), crop damage, CORN ([2]; 250 g ai/ha): 98
Pre-emerge Herbicidal Activity, phytotoxicity rating (0-100), AMBEL ([3]; 63 g ai/ha): 100
Pre-emerge Herbicidal Activity, phytotoxicity rating (0-100), AMBEL ([3]; 250 g ai/ha): 100
Pre-emerge Herbicidal Activity, phytotoxicity rating (0-100), SETVI ([4]; 63 g ai/ha): 100
Pre-emerge Herbicidal Activity, phytotoxicity rating (0-100), SETVI ([4]; 250 g ai/ha): 100
Pre-emerge Herbicidal Activity, phytotoxicity rating (0-100), IPOHE ([5]; 63 g ai/ha): 100
Pre-emerge Herbicidal Activity, phytotoxicity rating (0-100), IPOHE ([5]; 250 g ai/ha): 100
Pre-emerge Herbicidal Activity, phytotoxicity rating (0-100), CHEAL ([6]; 63 g ai/ha): 100
Pre-emerge Herbicidal Activity, phytotoxicity rating (0-100), CHEAL ([6]; 250 g ai/ha): 100
Pre-emerge Herbicidal Activity, phytotoxicity rating (0-100), ABUTH ([7]; 63 g ai/ha): 100
Pre-emerge Herbicidal Activity, phytotoxicity rating (0-100), ABUTH ([7]; 250 g ai/ha): 100
Pre-emerge Herbicidal Activity, phytotoxicity rating (0-100), CASOB ([8]; 63 g ai/ha): 80
Pre-emerge Herbicidal Activity, phytotoxicity rating (0-100), CASOB ([8]; 250 g ai/ha): 100
Pre-emerge Herbicidal Activity, phytotoxicity rating (0-100), DIGSA ([9]; 63 g ai/ha): 100
Pre-emerge Herbicidal Activity, phytotoxicity rating (0-100), DIGSA ([9]; 250 g ai/ha): 100
Pre-emerge Herbicidal Activity, phytotoxicity rating (0-100), SORHA ([10]; 63 g ai/ha): 95
Pre-emerge Herbicidal Activity, phytotoxicity rating (0-100), SORHA ([10]; 250 g ai/ha): 100
Pre-emerge Herbicidal Activity, phytotoxicity rating (0-100), ECHCG ([11]; 63 g ai/ha): 100
Pre-emerge Herbicidal Activity, phytotoxicity rating (0-100), ECHCG ([11]; 250 g ai/ha): 100
phytotoxicity rating RICE ([12]; 63 g ai/ha): 60
phytotoxicity rating RICE ([12]; 250 g ai/ha): 90
phytotoxicity rating CORN ([13]; 63 g ai/ha): 10
phytotoxicity rating CORN ([13]; 250 g ai/ha): 60
Pre-emerge Herbicidal Activity, phytotoxicity rating (0-100), AMARE ([14]; 63 g ai/ha): 100
Pre-emerge Herbicidal Activity, phytotoxicity rating (0-100), AMARE ([14]; 250 g ai/ha): 100
phytotoxicity rating AMBEL ([15]; 63 g ai/ha): 70
phytotoxicity rating AMBEL ([15]; 250 g ai/ha): 95
phytotoxicity rating SETVI ([16]; 63 g ai/ha): 50
phytotoxicity rating SETVI ([16]; 250 g ai/ha): 80
phytotoxicity rating IPOHE ([17]; 63 g ai/ha): 100
phytotoxicity rating IPOHE ([17]; 250 g ai/ha): 100
phytotoxicity rating CHEAL ([18]; 63 g ai/ha): 90
phytotoxicity rating CHEAL ([18]; 250 g ai/ha): 100
phytotoxicity rating ABUTH ([19]; 63 g ai/ha): 100
phytotoxicity rating ABUTH ([19]; 250 g ai/ha): 100
phytotoxicity rating CASOB ([20]; 63 g ai/ha): 65
phytotoxicity rating CASOB ([20]; 250 g ai/ha): 100
phytotoxicity rating AMARE ([21]; 63 g ai/ha): 95
phytotoxicity rating AMARE ([21]; 250 g ai/ha): 100
phytotoxicity rating DIGSA ([22]; 63 g ai/ha): 0
phytotoxicity rating DIGSA ([22]; 250 g ai/ha): 30
phytotoxicity rating SORHA ([23]; 63 g ai/ha): 10
phytotoxicity rating SORHA ([23]; 250 g ai/ha): 95
phytotoxicity rating ECHCG ([24]; 63 g ai/ha): 30
phytotoxicity rating ECHCG ([24]; 250 g ai/ha): 80
